Each molecule was assayed against T1, Angiotensin II receptor (AT-1) type-1 (Rattus norvegicus, UniProt P29089+P25095) (assay: Antagonistic activity against Angiotensin II receptor type 1 in rat uterus).
T1 sequence (P29089 whole entry): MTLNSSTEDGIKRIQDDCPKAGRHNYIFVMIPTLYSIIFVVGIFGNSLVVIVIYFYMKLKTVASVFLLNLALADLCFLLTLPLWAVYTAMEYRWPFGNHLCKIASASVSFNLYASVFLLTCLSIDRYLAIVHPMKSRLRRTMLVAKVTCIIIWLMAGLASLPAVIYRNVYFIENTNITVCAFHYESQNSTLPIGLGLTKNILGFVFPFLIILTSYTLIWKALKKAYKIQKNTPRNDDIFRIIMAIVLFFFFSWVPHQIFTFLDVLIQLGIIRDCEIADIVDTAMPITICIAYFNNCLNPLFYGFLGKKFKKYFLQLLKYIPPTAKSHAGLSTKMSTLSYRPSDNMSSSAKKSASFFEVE
T1 sequence (P25095 whole entry): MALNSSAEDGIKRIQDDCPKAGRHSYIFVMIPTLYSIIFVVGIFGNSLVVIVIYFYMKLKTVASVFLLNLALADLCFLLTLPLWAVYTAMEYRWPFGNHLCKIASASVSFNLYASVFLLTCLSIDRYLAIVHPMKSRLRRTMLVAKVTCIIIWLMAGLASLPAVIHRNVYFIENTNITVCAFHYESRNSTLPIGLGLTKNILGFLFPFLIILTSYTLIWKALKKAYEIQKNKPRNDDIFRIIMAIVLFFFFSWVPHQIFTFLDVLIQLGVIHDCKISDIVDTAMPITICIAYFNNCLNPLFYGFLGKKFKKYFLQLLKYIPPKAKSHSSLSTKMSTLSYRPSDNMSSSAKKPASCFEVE
Format: functional, tissue-based

Row | Compound | pA2
1 | CC[C@H](C)[C@H](NC(=O)[C@H](Cc1ccc(OC)cc1)NC(=O)[C@@H](NC(=O)[C@H](CCCN=C(N)N)NC(=O)CNC)C(C)C)C(=O)N[C@@H](Cc1c[nH]cn1)C(=O)N1CCC[C@H]1C(=O)N[C@@H](CCO)C(=O)O | 5.7
2 | CC[C@H](C)[C@H](NC(=O)[C@H](Cc1ccc(OC)cc1)NC(=O)[C@@H](NC(=O)[C@H](CCCN=C(N)N)NC(=O)CNC)C(C)C)C(=O)N[C@@H](Cc1c[nH]cn1)C(=O)N1CCC[C@H]1C(=O)N[C@@H](Cc1ccccc1)C(=O)O | 7.5
3 | CC[C@H](C)[C@H](NC(=O)[C@@H]1CCCN1C(=O)[C@H](Cc1c[nH]cn1)NC(=O)[C@@H](NC(=O)[C@H](Cc1ccc(OC)cc1)NC(=O)[C@@H](NC(=O)[C@H](CCCN=C(N)N)NC(=O)CNC)C(C)C)[C@@H](C)CC)C(=O)O | 6.6
4 | CC[C@H](C)[C@H](NC(=O)[C@H](Cc1ccc(OC)cc1)NC(=O)[C@@H](NC(=O)[C@@H](N)CCCN=C(N)N)C(C)C)C(=O)N[C@@H](Cc1c[nH]cn1)C(=O)N1CCC[C@H]1C(=O)N[C@@H](CCO)C(=O)O | < 4.8

Continued, values first:

Row | pA2 | Compound
5 | 6.7 | CC[C@H](C)[C@H](NC(=O)[C@H](Cc1ccc(O)cc1)NC(=O)[C@@H](NC(=O)[C@H](CCCN=C(N)N)NC(=O)[C@@H](N)CC(=O)O)C(C)C)C(=O)N[C@@H](Cc1c[nH]cn1)C(=O)N1CCC[C@H]1C(=O)N[C@@H](CCO)C(=O)O
6 | 5.4 | CC[C@H](C)[C@H](NC(=O)[C@H](Cc1ccc(OC)cc1)NC(=O)[C@@H](NC(=O)[C@H](CCCN=C(N)N)NC(=O)[C@@H](N)CC(=O)O)C(C)C)C(=O)N[C@@H](Cc1c[nH]cn1)C(=O)N1CCC[C@H]1C(=O)N[C@@H](CCO)C(=O)O
7 | < 4.8 | CC[C@H](C)[C@H](NC(=O)[C@H](Cc1ccc(O)cc1)NC(=O)[C@@H](NC(=O)[C@@H](N)CCCN=C(N)N)C(C)C)C(=O)N[C@@H](Cc1c[nH]cn1)C(=O)N1CCC[C@H]1C(=O)N[C@@H](CCO)C(=O)O
8 | 7.8 | CC[C@H](C)[C@H](NC(=O)[C@H](Cc1ccc(O)cc1)NC(=O)[C@@H](NC(=O)[C@H](CCCN=C(N)N)NC(=O)CNC)C(C)C)C(=O)N[C@@H](Cc1c[nH]cn1)C(=O)N1CCC[C@H]1C(=O)N[C@@H](CCO)C(=O)O
